According to ChEMBL document CHEMBL1255545, “Synthesis and evaluation of 1,2,4-triazolo[1,5-c]pyrimidine derivatives as A2A receptor-selective antagonists” (Bioorg Med Chem Lett, 2010):

Columns and labels:
Format in all cases: cell-based
[1] = target: T1, Adenosine receptor A1 (Homo sapiens) (UniProt P30542); test: Displacement of [3H]CCPA from human adenosine A1 receptor expressed in CHO cells at 10 uM
T1 sequence (whole entry): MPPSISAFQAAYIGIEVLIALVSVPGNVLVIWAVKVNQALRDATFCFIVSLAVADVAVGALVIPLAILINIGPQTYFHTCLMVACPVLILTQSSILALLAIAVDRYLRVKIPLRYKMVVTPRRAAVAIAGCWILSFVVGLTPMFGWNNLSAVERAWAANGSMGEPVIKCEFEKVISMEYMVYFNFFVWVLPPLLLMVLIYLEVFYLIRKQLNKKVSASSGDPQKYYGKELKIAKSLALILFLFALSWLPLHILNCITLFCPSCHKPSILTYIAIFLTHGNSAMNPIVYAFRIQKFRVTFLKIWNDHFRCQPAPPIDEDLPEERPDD

[2] = target: T2, Adenosine receptor A3 (Homo sapiens) (UniProt P0DMS8); test: Displacement of [125I]I-AB-MECA from human adenosine A3 receptor expressed in CHO cells at 10 uM
T2 sequence (whole entry): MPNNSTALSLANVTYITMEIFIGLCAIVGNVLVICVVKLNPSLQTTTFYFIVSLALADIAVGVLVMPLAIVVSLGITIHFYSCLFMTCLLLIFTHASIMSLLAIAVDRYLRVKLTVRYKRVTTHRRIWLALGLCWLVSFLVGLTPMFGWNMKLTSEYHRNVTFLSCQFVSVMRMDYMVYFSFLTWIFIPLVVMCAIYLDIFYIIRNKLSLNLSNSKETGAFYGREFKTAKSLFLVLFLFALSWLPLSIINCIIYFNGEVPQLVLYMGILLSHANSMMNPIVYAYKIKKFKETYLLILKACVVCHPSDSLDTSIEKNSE

Adenosine receptor A2a = Adenosine receptor A2a (Homo sapiens, UniProt P29274); test: Displacement of [3H]CGS21680 from human adenosine A2A receptor expressed in HEK293 cells at 10 uM
Adenosine receptor A2a, sequence (P29274 whole entry): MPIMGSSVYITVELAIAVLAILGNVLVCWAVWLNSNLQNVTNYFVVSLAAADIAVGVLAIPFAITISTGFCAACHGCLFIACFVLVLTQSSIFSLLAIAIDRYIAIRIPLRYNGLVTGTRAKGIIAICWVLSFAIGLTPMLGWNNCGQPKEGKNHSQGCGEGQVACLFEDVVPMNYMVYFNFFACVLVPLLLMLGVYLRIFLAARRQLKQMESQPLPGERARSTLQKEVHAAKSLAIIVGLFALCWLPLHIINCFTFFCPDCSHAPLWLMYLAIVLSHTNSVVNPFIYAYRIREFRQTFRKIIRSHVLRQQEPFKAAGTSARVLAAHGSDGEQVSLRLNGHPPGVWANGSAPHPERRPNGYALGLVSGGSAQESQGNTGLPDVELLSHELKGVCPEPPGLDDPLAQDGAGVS

Adenosine receptor A3 = target: T3, Adenosine receptor A3 (Homo sapiens, UniProt P0DMS8); test: Displacement of [125I]I-AB-MECA from human adenosine A3 receptor expressed in CHO cells
T3 sequence (P0DMS8 whole entry): T2 sequence (whole entry)

Row | SMILES | inhibition [1] | inhibition [2] | Ki (Adenosine receptor A2a) | Ki (Adenosine receptor A3)
1 | Nc1nc2c(cnn2CCCc2ccc(O/C=C/c3ccccc3)cc2)c2nc(-c3ccco3)nn12 | 7.3% | 17.8% | 308 nM | –
2 | CS(=O)(=O)OCCOc1ccc(CCCn2ncc3c2nc(N)n2nc(-c4ccco4)nc32)cc1 | 27.8% | 62.4% | 45.7 nM | –
3 | C=CCOc1ccc(CCCn2ncc3c2nc(N)n2nc(-c4ccco4)nc32)cc1 | 32.8% | 62.5% | 9 nM | –
4 | CC(C)Oc1ccc(CCCn2ncc3c2nc(N)n2nc(-c4ccco4)nc32)cc1 | 35% | 72.8% | 13.3 nM | –
5 | Nc1nc2c(cnn2CCCc2ccc(OCCF)cc2)c2nc(-c3ccco3)nn12 | 42.7% | 59.6% | 12.4 nM | –
6 | Nc1nc2c(cnn2CCCc2ccc(O)cc2)c2nc(-c3ccco3)nn12 | 44.3% | 34.2% | 48.3 nM | –
7 | COc1ccc(CCCn2ncc3c2nc(N)n2nc(-c4ccco4)nc32)cc1 | 38.4% | 67.4% | – | –
8 | Nc1nc2c(cnn2CCCc2ccc(OCCO)cc2)c2nc(-c3ccco3)nn12 | 47.9% | 57.8% | 23.9 nM | –
9 | C=CCCOc1ccc(CCCn2ncc3c2nc(N)n2nc(-c4ccco4)nc32)cc1 | 25.5% | 44.8% | 14.4 nM | –
10 | Nc1nc2c(cnn2CCCc2ccc(OCCc3ccccc3)cc2)c2nc(-c3ccco3)nn12 | 6.9% | 18.2% | 78.9 nM | –
11 | CCOc1ccc(CCCn2ncc3c2nc(N)n2nc(-c4ccco4)nc32)cc1 | 4.8% | – | 43.9 nM | 4940 nM
12 | CCC(C)Oc1ccc(CCCn2ncc3c2nc(N)n2nc(-c4ccco4)nc32)cc1 (stereo not drawn) | 16.8% | 41.9% | 22.1 nM | –
13 | CCCOc1ccc(CCCn2ncc3c2nc(N)n2nc(-c4ccco4)nc32)cc1 | 17.9% | 36.5% | 11.7 nM | –
